Measurements: ChEMBL document CHEMBL1201862, “PubChem BioAssay data set” (2004)
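Where inhibition never reached the appropriate level, the endpoint shown equals the highest concentration tested. Otherwise, values were interpolated linearly from a five-concentration, 48-hour dose response in 96-well plates. GI50: concentration for 50% inhibition of growth.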 The source made the active and inactive calls. No stated cut-off is given here; in the data, active = GI50 up to about 1.1 µM and inactive = higher.

Legend:
Experiment in all cases: inhibition of tumour cell growth, NCI panel, 48 h
CCRF-CEM = test system: CCRF-CEM
HCT-15 = test system: HCT-15
HOP-62 = test system: HOP-62
LOX IMVI = test system: LOX IMVI
MOLT-4 = test system: MOLT-4
Malme-3M = test system: Malme-3M
NCI-H226 = test system: NCI-H226
NCI-H23 = test system: NCI-H23
NCI-H522 = test system: NCI-H522
OVCAR-3 = test system: OVCAR-3
OVCAR-4 = test system: OVCAR-4
OVCAR-8 = test system: OVCAR-8
SF-539 = test system: SF-539
SK-MEL-5 = test system: SK-MEL-5
SNB-19 = test system: SNB-19
UACC-257 = test system: UACC-257
HL-60 = test system: HL-60
HOP-92 = test system: HOP-92
MCF7 = test system: MCF7
A498 = test system: A498

SMILES | GI50 (CCRF-CEM) | GI50 (HCT-15) [µM] | GI50 (HOP-62) | GI50 (LOX IMVI) | GI50 (MOLT-4) | GI50 (Malme-3M) | GI50 (NCI-H226) | GI50 (NCI-H23) | GI50 (NCI-H522) | GI50 (OVCAR-3) | GI50 (OVCAR-4) | GI50 (OVCAR-8) | GI50 (SF-539) | GI50 (SK-MEL-5) | GI50 (SNB-19) | GI50 (UACC-257) | GI50 (HL-60) | GI50 (HOP-92) | GI50 (MCF7) | GI50 (A498)
CC1SC(c2ccccc2)N(Nc2c3ccccc3nc3ccccc23)C1=O (centres undefined) | 69.8 µM (inactive) | 51.8 | > 100 µM (inactive) | 89.1 µM (inactive) | 28.9 µM (inactive) | > 100 µM (inactive) | 55.3 µM (inactive) | 50.4 µM (inactive) | 40 µM (inactive) | > 100 µM (inactive) | > 100 µM (inactive) | 74.1 µM (inactive) | > 100 µM (inactive) | 38.4 µM (inactive) | > 100 µM (inactive) | 83.6 µM (inactive) |  |  |  | 
CCCCN1C=CN2c3nc4cc(C)c(C)cc4n3C(C(=O)OC)=C(C(=O)OC)C12 (centres undefined) | > 100 µM (inactive) | > 100 | > 100 µM (inactive) | > 100 µM (inactive) | > 100 µM (inactive) | > 100 µM (inactive) |  | > 100 µM (inactive) | > 100 µM (inactive) | > 100 µM (inactive) | > 100 µM (inactive) | > 100 µM (inactive) | > 100 µM (inactive) | > 100 µM (inactive) | > 100 µM (inactive) | > 100 µM (inactive) | > 100 µM (inactive) | > 100 µM (inactive) |  | 
COC(=O)C1=C(OC(=O)/C(=C/c2ccc(Cl)cc2)c2ccc(Cl)cc2)C(C(=O)OC)[C@]2(O)[C@@H](C(=O)OC)[C@H]1C[C@@H](c1ccccc1)[C@@H]2C(=O)OC (some centres undefined) |  | > 100 | 32.7 µM (inactive) | > 100 µM (inactive) | 2.22 µM (inactive) |  | > 100 µM (inactive) | > 100 µM (inactive) | 3.85 µM (inactive) | 27 µM (inactive) | > 100 µM (inactive) | > 100 µM (inactive) | > 100 µM (inactive) | > 100 µM (inactive) | 59 µM (inactive) | > 100 µM (inactive) | > 100 µM (inactive) |  |  | 
C/C=C/c1cc(=O)c([C@@H]2OC(=O)c3cc(OC)cc(OC)c32)co1 [VERMISTATIN] | 24.1 µM (inactive) |  | 53 µM (inactive) |  | 38.6 µM (inactive) |  | 60.4 µM (inactive) | 29.6 µM (inactive) |  | 20.7 µM (inactive) | 54.3 µM (inactive) | 46.8 µM (inactive) | 26.7 µM (inactive) | 50.5 µM (inactive) | > 100 µM (inactive) | 29.1 µM (inactive) | 27.4 µM (inactive) | 49 µM (inactive) |  | 
CCCCCCCCCCCCCCCCCC(=O)OCC1OC(OC)C(NC(=O)N(CCCl)N=O)C(O)C1O (centres undefined) |  | 36.1 | > 100 µM (inactive) | 13.6 µM (inactive) | 4.41 µM (inactive) | 26.1 µM (inactive) | 24.9 µM (inactive) | 16.4 µM (inactive) | 17.1 µM (inactive) | 26.9 µM (inactive) | 24 µM (inactive) | 33.5 µM (inactive) | 9.86 µM (inactive) | 26.3 µM (inactive) | 24.9 µM (inactive) | 16.8 µM (inactive) |  |  |  | 
COc1cc(/C=C(\C#N)C(N)=O)cc(Br)c1O | > 100 µM (inactive) | > 100 | 92.3 µM (inactive) | 29.7 µM (inactive) | > 100 µM (inactive) | > 100 µM (inactive) | > 100 µM (inactive) |  |  | > 100 µM (inactive) | > 100 µM (inactive) | > 100 µM (inactive) | > 100 µM (inactive) | > 100 µM (inactive) | > 100 µM (inactive) | > 100 µM (inactive) |  |  | 95.1 µM (inactive) | 
O=C1C=CC[C@H]2O[C@@H](COC(=O)Cc3ccccc3)C[C@H]2O1 | 41.4 µM (inactive) | 18.4 | 41.2 µM (inactive) |  | 25.4 µM (inactive) |  | 35.4 µM (inactive) | 20.9 µM (inactive) |  | 38.6 µM (inactive) | 24 µM (inactive) | 28.7 µM (inactive) | 29.6 µM (inactive) | 49.7 µM (inactive) | 25.6 µM (inactive) | 40.4 µM (inactive) | 16.5 µM (inactive) | 28.1 µM (inactive) | 44.3 µM (inactive) | > 100 µM (inactive)
